Laboratory results reported in paper PMC3880013, “Toward an Understanding of Agonist Binding to Human Orexin-1 and Orexin-2 Receptors with G-Protein-Coupled Receptor Modeling and Site-Directed Mutagenesis” (Biochemistry, 2013).
Like-named read-outs stand apart in the source and are kept apart here. Marks after values point to notes of the source that are not given here. Where no end group is shown, it is not given here.

Key:
hOX1 Q179A = test: Calcium flux assay, CHO-K1 cells stably expressing Orexin receptor mutant; format: cell-based, human; settings: hOX1 Q179A (4.60) vs wild type, CHO-K1, Fluo-4AM, this work
Description: (§1) A combination of overlap and mismatch polymerase chain reaction (PCR) was used to introduce mutations into the corresponding Orexin-1 and Orexin-2 cDNAs as described by us previously.[62] Each mutation was made via the generation of two overlapping PCR fragments with PfuUltra II Fusion HS DNA Polymerase (Strategene). The two products were extracted, and a second round of PCR was performed via combination of both fragments with 5′ and 3′ gene specific primers (containing BamHI and NotI restriction sites, respectively). The resulting gel-purified products were then cloned into expression vector pFB-Neo for subsequent generation of stable cell lines. Constructs were confirmed via sequencing. Each verified cDNA was subsequently used to generate single, stably expressing clones in the CHO-K1 cell line.
(§2) Standard calcium flux assays were used to assess the functionality of each OX receptor mutant. Each CHO-K1 Orexin mutant was seeded into tissue culture-treated, 384-well, black clear-bottom plates (CellBind Corning 7086), at a density of 7500 cells/well in culture medium and maintained in an incubator (5% CO2 at 37 °C) overnight. The cell medium was removed, and the cells were incubated in 20 μL of assay buffer (4 μM Fluo-4AM in HBSS with 0.1% BSA) for 90 min at 37 °C. After incubation, the dye was removed and 45 μL of fresh buffer, without dye, was applied. Antagonists (5 μL) were applied, and after incubation for an additional 20 min at 37 °C, 20 μL of receptor specific agonists was applied and the calcium flux monitored using a Flex Station (Molecular Devices) over a period of 1 min. In all cases, the EC80 specific for the individual mutant as determined in previous experiments was reported.

hOX1 Y311F = test: as above; format: cell-based, human; settings: hOX1 Y311F (6.48) relative to wild type, CHO-K1, Fluo-4AM, this work
Description: as §1, §2

hOX2 F227W = test: as above; format: cell-based, human; settings: hOX2 F227W (5.42) relative to wild type, CHO-K1, Fluo-4AM, this work
Description: as §1, §2

hOX2 Q134A = test: as above; format: cell-based, human; settings: hOX2 Q134A (3.32) relative to wild type, CHO-K1, Fluo-4AM, this work
Description: as §1, §2

hOX2 Q187A = test: as above; format: cell-based, human; settings: hOX2 Q187A (4.60) relative to wild type, CHO-K1, Fluo-4AM, this work
Description: as §1, §2

hOX1 D203A = hOX1 D203A (45.51) relative to wild type, [Ca2+]i response, ref 37 Malherbe et al., cited from earlier work
Excerpt: (§3) Other mutations had no major effect on efficacy.

hOX1 W206A = settings: cited from earlier work; for ratio EC50(mut)/EC50(WT): hOX1 W206A (45.54) relative to wild type, [Ca2+]i response, ref 37 Malherbe et al.
Excerpt: as §3

hOX1 Y215A = hOX1 Y215A (5.38) relative to wild type, [Ca2+]i response, ref 37 Malherbe et al., cited from earlier work
Excerpt: as §3

hOX1 Y224A = hOX1 Y224A (5.47) relative to wild type, [Ca2+]i response, ref 37 Malherbe et al., cited from earlier work
Excerpt: as §3

hOX1 Y311A = settings: cited from earlier work
Excerpt: as §3

hOX1 H344A = settings: cited from earlier work; for ratio EC50(mut)/EC50(WT): hOX1 H344A (7.39) relative to wild type, [Ca2+]i response, ref 37 Malherbe et al.
Excerpt: Other mutations had no major effect on efficacy. || An additional residue that plays a key role in OX receptor agonist binding and activation by Orexin peptides is H^7.39. […] We observed that in OX1, H^7.39 interacts with residues L16 and L20 of helix 1 of OxA (see Figure 6A). […] On the other hand, in OX2, H^7.39 interacts with L20 and not with L16 (see Figure 6B), and ...

hOX2 T111A = system: hOX2 T111A; design: method as in earlier work; settings: hOX2 T111A (2.61) relative to wild type, [Ca2+]i response, ref 37 Malherbe et al., cited from earlier work
hOX2 Y232A = system: hOX2 Y232A; design: method as in 2 sources, one per row (each row's own in cited_ref): ref 37 Malherbe et al. ||| ref 37 = [37]; PMID 20404073; doi:10.1124/mol.110.064584; Malherbe P.; Roche O.; Marcuz A.; Kratzeisen C.; Wettstein J. G.; Bissantz C. ( 2010 ) Mapping the Binding Pocket of Dual Antagonist Almorexant to Human Orexin 1 and Orexin 2 Receptors: Compariso; settings: cited from earlier work; for ratio EC50(mut)/EC50(WT): hOX2 Y232A (5.47) relative to wild type, [Ca2+]i response, ref 37 Malherbe et al.
hOX2 F346A = system: hOX2 F346A; design: method as in earlier work; settings: hOX2 F346A (7.35) relative to wild type, [Ca2+]i response, ref 37 Malherbe et al., cited from earlier work
hOX2 H350A = settings: cited from earlier work; for ratio EC50(mut)/EC50(WT): hOX2 H350A (7.39) relative to wild type, [Ca2+]i response, ref 37 Malherbe et al.
Excerpt: We observed that in OX1, H^7.39 interacts with residues L16 and L20 of helix 1 of OxA (see Figure 6A). […] On the other hand, in OX2, H^7.39 interacts with L20 and not with L16 (see Figure 6B), and ...

Orexin-A (QPLPDCCRQKTCSCRLYELLHGAGNHAAGILTL; ends and bridges not checked; cysteine pairing not given here; UniProt O43612 34-66, looked up) [hypothalamic neuropeptide, 33 amino acids, two intramolecular disulfide bonds C6-C12 and C7-C14; natural OX1/OX2 agonist]
fold improvement in potency relative to wild type (hOX1 Q179A): 17.8 fold improvement
ratio EC50(mut)/EC50(WT) (hOX1 Y311F): 1.6 ^d fold
ratio EC50(mut)/EC50(WT) (hOX2 F227W): 84.2 ^d fold
ratio EC50(mut)/EC50(WT) (hOX2 Q134A): 15.1 fold
ratio EC50(mut)/EC50(WT) (hOX2 Q187A): 1.3 ^d fold
ratio EC50(mut)/EC50(WT) (hOX1 D203A): 408.2 ^c fold
ratio EC50(mut)/EC50(WT) (hOX1 D203A; listed as OxA): 408.2 fold
ratio EC50(mut)/EC50(WT) (hOX1 W206A): 417.8 ^c fold
ratio EC50(mut)/EC50(WT) (hOX1 W206A; listed as OxA): 417.8 fold
decrease in the maximal efficacy (Emax) (hOX1 W206A; hOX1 W206A compared with WT): 45.0%
ratio EC50(mut)/EC50(WT) (hOX1 Y215A): 407.8 ^c fold
ratio EC50(mut)/EC50(WT) (hOX1 Y215A; listed as OxA): 407.8 fold
ratio EC50(mut)/EC50(WT) (hOX1 Y224A): 84.4 ^c fold
ratio EC50(mut)/EC50(WT) (hOX1 Y224A; listed as OxA): 84.4 fold
ratio EC50(mut)/EC50(WT) (hOX1 Y311A; hOX1 Y311A (6.48) relative to wild type, [Ca2+]i response, ref 37 Malherbe et al.): 163.9 fold
decrease in the maximal efficacy (Emax) (hOX1 Y311A; hOX1 Y311A compared with WT): 53.4%
decrease in Emax (hOX1 H344A; OX1 H7.39 (H344) mutated to alanine): 64.5%
ratio EC50(mut)/EC50(WT) (hOX1 H344A): 241.1 ^c fold
ratio EC50(mut)/EC50(WT) (hOX1 H344A; listed as OxA): 241.1 fold
ratio EC50(mut)/EC50(WT) (hOX2 T111A): 243.5 ^c fold
ratio EC50(mut)/EC50(WT) (hOX2 T111A; listed as OxA): 243.5 fold
ratio EC50(mut)/EC50(WT) (hOX2 Y232A): 28.4 ^c fold
ratio EC50(mut)/EC50(WT) (hOX2 Y232A; listed as OxA): 28.4 fold
Emax (decreased) (hOX2 Y232A; hOX2 Y232A compared with WT): 44.9%
ratio EC50(mut)/EC50(WT) (hOX2 F346A): 54.5 ^c fold
ratio EC50(mut)/EC50(WT) (hOX2 F346A; listed as OxA): 54.5 fold
decrease in Emax (hOX2 H350A; OX2 H7.39 (H350) mutated to alanine): 63.0%
ratio EC50(mut)/EC50(WT) (hOX2 H350A): 49.5 ^c fold
ratio EC50(mut)/EC50(WT) (hOX2 H350A; listed as OxA): 49.5 fold
